We go through one compound from PMC8119899, “A Single Mutation in the Outer Lipid-Facing Helix of a Pentameric Ligand-Gated Ion Channel Affects Channel Function Through a Radially-Propagating Mechanism” (Frontiers in Molecular Biosciences, 2021).

Changes are numbered by the printed parent chain.

One experiment deals with T1, 5-HT3A receptor C290A (Mus musculus, UniProt P23979, C317A).
T1 sequence (P23979 24-489 C317A): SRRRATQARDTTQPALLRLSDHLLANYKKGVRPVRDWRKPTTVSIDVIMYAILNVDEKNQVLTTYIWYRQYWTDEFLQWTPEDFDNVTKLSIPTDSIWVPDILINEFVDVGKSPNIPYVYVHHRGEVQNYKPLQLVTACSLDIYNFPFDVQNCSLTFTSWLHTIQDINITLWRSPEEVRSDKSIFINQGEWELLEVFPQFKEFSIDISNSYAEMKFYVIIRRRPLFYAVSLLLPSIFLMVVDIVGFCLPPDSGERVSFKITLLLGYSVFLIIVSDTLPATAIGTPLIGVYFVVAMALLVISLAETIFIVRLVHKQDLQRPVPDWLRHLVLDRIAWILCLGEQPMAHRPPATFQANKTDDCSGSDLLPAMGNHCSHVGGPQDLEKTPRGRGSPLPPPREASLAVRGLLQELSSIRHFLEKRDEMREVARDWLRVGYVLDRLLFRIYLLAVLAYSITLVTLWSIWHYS
As to the kind of experiment: FlexStation membrane potential dye, 5-HT response, C290A receptor in HEK293 cells. It is filed as cell-based. The arrangement: expressed in transfected cells; host or cells: HEK293. Particulars: mean and SEM, n ≥ 3. On the procedure:
(§1) The mouse 5-HT3A cDNA (Q6J1J7) in pcDNA3.1 (for HEK cell transfection) or pGEMHE (for RNA production) was modified by QuikChange site-directed mutagenesis (Agilent Technologies) to create point mutants (verified by sequencing).
(§2) Human embryonic kidney (HEK) 293 cells were maintained at 37 °C at 5% CO2 in a humidified atmosphere, in Dulbecco's Modified Eagle's Medium/Nutrient Mix F12 (1:1) (Invitrogen, Paisley, UK) with GlutaMAX^TM and 10% fetal bovine serum (GE Healthcare) (DMEM/FBS) and passaged when confluent.
(§3) As described previously (Price and Lummis, [2005]) cells were incubated for 45 min with fluorescent membrane potential-sensitive dye (Membrane Potential Blue kit, Molecular Devices) diluted in Flex buffer (10 mM HEPES, 115 mM NaCl, 1 mM KCl, 1 mM CaCl2, 1 mM MgCl2, and 10 mM glucose, pH 7.4), and subsequently assayed at room temperature for 180 s, with readings every 2 s. […] (log of the concentration of ligand), a is the minimum response, b is the maximum response, and nH is the Hill slope.

The next experiment concerns the target T2, 5-HT3A receptor D238A (Mus musculus, UniProt P23979, D265A).
T2 sequence (P23979 24-489 D265A): T1 sequence (P23979 24-489 C317A) with D242A, A294C
As to the kind of experiment: FlexStation membrane potential dye, 5-HT response, D238A receptor in HEK293 cells. It is filed as cell-based. Details: expressed in transfected cells; host or cells: HEK293; key to pEC50: Mutants that did not respond in the functional assay are marked as non functional (NF). On the procedure: as §1
Human embryonic kidney (HEK) 293 cells were maintained at 37 °C at 5% CO2 in a humidified atmosphere, in Dulbecco's Modified Eagle's Medium/Nutrient Mix F12 (1:1) (Invitrogen, Paisley, UK) with GlutaMAX^TM and 10% fetal bovine serum (GE Healthcare) (DMEM/FBS) and passaged when confluent. Five micrograms of WT or mutant 5-HT3A DNA and 30 μl polyethyleneamine (Polysciences) incubated for 10 min in 1 mL DMEM was added to 60% confluent HEK293 cells for transfection, and cells grown for 2 days before assays.
as §3

Another experiment has as its target T3, 5-HT3A receptor Y441A (Mus musculus, UniProt P23979, Y468A).
T3 sequence (P23979 24-489 Y468A): T1 sequence (P23979 24-489 C317A) with A294C, Y445A
The arrangement: expressed in transfected cells; method as in Mesoy et al., [2019]. Particulars: HEK293 cells, ref Mesoy et al., [2019]; cited from earlier work.

The target of another experiment is T4, 5-HT3A receptor F242A (Mus musculus, UniProt P23979, F269A).
T4 construct: expressed in transfected cells; host or cells: HEK293
T4 sequence (P23979 24-489 F269A): T1 sequence (P23979 24-489 C317A) with F246A, A294C
As to the kind of experiment: FlexStation membrane potential dye, 5-HT response, F242A receptor in HEK293 cells. It is filed as cell-based. Particulars: mean and SEM, n ≥ 3. On the procedure:
as §1, §2, §3

With `NCCc1c[nH]c2ccc(O)cc12` [5-HT], the nH at 5-HT3A receptor C290A stood at 1.2 ± 0.2; at 5-HT3A receptor F242A, 3.8 ± 0.8. Also, the pEC50 entry at 5-HT3A receptor D238A was “NF”. The “response to application of 5-HT” value on 5-HT3A receptor D238A and on 5-HT3A receptor Y441A was “Neither Y441A nor D238A responded” each time.
